pIC50: −log10 of the molar value. Like-named read-outs stand apart in the source and are kept apart here.
Columns and labels:
HEL cells = experiment: HEL-based MTT cell viability assay; design: species or system human; conditions: 48 h, read-out: Activity (IC50, reduction of cell viability)
Method: (§1) Cell viability was assayed by measuring the mitochondrial reduction of the tetrazolium salt 3-(4,5-methyltiazol-2yl)-2,5diphenyl-tetrazolium bromide] (MTT) (Applichen; A2231,0010) (Mosmann T. J Immunol Methods. 1983 16; 65(1-2):55-63; Chuan Y-C et al 2010. Oncogene. 29 (10), 1531-1542. Cells were seeded in 96-well plates in medium supplemented with 10% FBS (Lonza Cat. No: 14-502F), 2 mM L-Glut (Lonza Cat. No: BE17-605E) and 100 U/ml PEST (Lonza Cat. No: DE17-605E) at a cell density of 5000-20000 cells/well. Cells were seeded at a density according to their exponential growth phase. Vehicle (0.05% DMSO) or drug were added to culture medium at the indicated concentrations (10 to 0.01 microM) during 48 h. Then, MTT (0.3 mg/ml) was added to cells following by incubation for 2-4 h at 37° C. in the dark. The medium was then discarded and the formazan precipitate was solubilized by addition of 20% SDS (Sigma; L-5750) in 0.02N HCl (Panreac; 131020.1611) for 12-16 h. The optical density was measured at 595 nm with the iMark Microplate Reader (BioRad, USA). Data was expressed as percent growth above the level in controls and the results in figures were plotted as means±SEM of each test point from 3 replicates.
(§2) Statistical analysis. The concentration of drug that provokes 50% reduction of cell viability (IC50) was determined by using non-linear regression analysis and data were fitted to a log concentration vs normalized response curve in GraphPad software v5 (San Diego, Calif.).

K562 cells [1] = experiment: K562-based MTT cell viability assay; design: species or system human; conditions: 48 h, read-out: Activity (IC50, reduction of cell viability)
Method: as §1, §2

STAT5 [2] = experiment: STAT5 phosphorylation western blot assay; format: cell-based, human; conditions: 10 microM, HEL or K562 cells (table does not say which)
Method: (§3) The Human Erythroleukemia cell line HEL and the human Chronic Myeloid Leukemia cell line K562 were cultured in RPM I 1640 medium containing 10% fetal bovine serum (FBS) and 50 U/ml penicillin/50 U/ml streptomycin at 37° C. in a 5% CO2 humidified atmosphere to a density of 300.000 viable cells/mL in presence of WP1066 (positive control of phosphorylation inhibition) (Verstovsek et al., 2008) or CM-363 at concentrations of 1, 5 and 10 μM. Cell culture reagents were all obtained from BioWhittaker® (Lonza, Verniers, Belgium). Cell growth and viability was determined by propidium iodide (fluorescent dye) exclusion method using the Accuchip 4× Counting Kit and the ADAM automatic cell counter (Digital-Bio, NanoEntek, Ic., Washington St, Mass., USA).As a control of unspecific phosphorylation, some cells in each experiment were exposed to vehicle (negative control of phosphorylation inhibition) (0.1% DMSO).
(§4) For total protein extraction, cells were scraped with RIPA 1× lysis buffer (25 mM Tris-HCl pH 7.6, 150 mM NaCl, 1% NP-40, 1% sodium deoxycholate, 0.1% SDS, no. 89900, Thermo Scientific, Rockford, Ill., USA) supplemented with 1× protease and 1× phosphatase inhibitor cocktails (100× Halt™ Protease Inhibitor Cocktail, no. 87786 and 100× Halt Phosphatase Inhibitor Cocktail, no. 78420, both from Thermo Scientific, Rockford, Ill., USA). An aliquot of each extract was preserved for protein quantification by bicinchoninic acid assay (Pierce® BCA Protein Assay Kit, no. 23225, Thermo Scientific, Rockford, Ill., USA).
(§5) Proteins were solubilized in sample buffer containing 0.0625 M Tris-HCl, pH 6.8, 2.3% (wt/vol) SDS, 10% (vol/vol) glycerol, 5% (vol/vol) f3-mercaptoethanol, and 0.001% (wt/vol) bromophenol blue and boiled at 95° C. for 5 min. Equal amounts (50 μg) of each sample were electrophoresed on 8-10% sodium dodecyl sulfate-polyacrylamide gel electrophoresis (SDS-PAGE) and transferred to nitrocellulose membranes (iBlot® Gel Transfer Stacks, Nitrocellulose, no. IB4010-02, Invitrogen, Barcelona, Spain) as described previously (Fernandez, L, et al., Endocrinology, 13, 1815-1824, 1998; B. Guerra et al., J. Neurochem, 91, 99-109, 2004; B. Guerra et al., J. Appl. Physiol., 102, 1786-1792, 2007; B. Guerra et al., J. Appl. Physiol., 111, 715-725, 2011). The nitrocellulose membranes were then removed from the iBlot® Dry GelTransfer Device (no. IB1001EU, Invitrogen, Barcelona, Spain) and placed in a Ponceau S staining solution (0.5% Ponceau S and 1% glacial acetic acid in water) to verify equal loading of protein in the control and treated samples. After the membranes were stained for 5 min, they were rinsed for 2 min and examined. Equal loading of protein was verified, and the membranes were rinsed for an additional 10 min and immunoscreened. Membranes were blocked with 5% blotting grade blocker nonfat dry milk in Tris Buffered Saline with 0.05% Tween 20 (TBST; blotto-blocking buffer) for at least […]) at room temperature. They were washed thrice in TBS with 0.1% Tween 20 (TBST-0.1). Next, the membranes were incubated over night at 4° C. with the appropriate anti-phospho-antibodies (described below) all diluted (1:1000) in 1% bovine serum albumin (BSA)-1% blotto in TBST (BSA-blotto blocking buffer). […] Membranes were stripped of bound antibodies by incubation in stripping buffer (Restore™ Western Blot Stripping Buffer, no. 21059, Thermo Scientific, Rockford, Ill., USA) at room temperature for 30 min with agitation. Membranes were washed for 3×10 min in TBST-0.1, blocked with blotto-blocking buffer for at least 1 h and re-probed with the corresponding anti-total kinase antibodies (described below) all diluted (1:1000) in blotto-blocking buffer. […]

[3] = tested on: STAT5 transcription (pSPI-GLE1-luc) in HEK-GHR cells; experiment: HEK-GHR STAT5 transcription assay (luciferase reporter, rhGH stimulated); format: cell-based, human; conditions: compound 45 minutes before 50 nM rhGH, six hours, read-out: Activity (IC50, reduction of luciferase activity)
Excerpt: Plasmids: The full-length GHR was subcloned into pcDNA1/ampicillin (Invitrogen) as described previously (Ross R J, Esposito N, Shen X Y, et al., Mol Endocrinol 1997, 11:265-73). The pSPI-GLE1 (serine protease inhibitor 2.1 GAS-like element 1)-luc reporter construct was generated by subcloning the Stat5-binding element from serine protease inhibitor gene together with a minimal thymidine kinase promoter into the pGL2 plasmid (Promega), which contains the firefly luciferase cDNA (Wood T J, Sliva D, Lobie P E, et al. J Biol Chem 1995, 270:9448-53).
Cell culture: HEK-GHR cell line was maintained in Dulbecco's Modified Eagle Medium (DMEM)/F12 supplemented with 10% fetal bovine serum (FBS) and 50 U/ml penicillin/50 U/ml streptomycin. The cells were maintained in a humidified incubator with 5% CO2 at 37° C. Cell culture reagents were obtained from PAA laboratories. The HEK-GHR cell line is a stable clone generated and kindly donated by Prof. Richard Ross (Clinical Sciences, Northern General Hospital, Sheffield, UK). Briefly, HEK-GHR cell line was generated in HEK 293 cells (human kidney embryonal cell line) by transfection with the calcium phosphate procedure of the GHR plasmid with pcDNA3/Neo (Invitrogen). Selection was made using G418 (400 ug/ml, Sigma) (Maamra M, Finidori J, Von Laue S, et al., J Biol Chem 1999, 274(21):14791-8).
Luciferase reporter assay: Transcription assays were performed in HEK-GHR. The HEK-GHR cells were co-transfected with Stat5 luciferase (pSPI-GLE1-luc) reporter vector together with a plasmid constitutively expressing beta-galactosidase by using Metafectene Pro as described by the manufacturer (Biontex Laboratories GmbH, Munich, Germany). Following transfection, HEK-GHR cells were serum-starved for 20 h. Cells were then treated with vehicle (0.1% DMSO) or the indicated compound for 45 minutes prior to the addition of 50 nM recombinant human Growth Hormone (rhGH) (Norditropin, Novo Nordisk) to the medium. Six hours following rhGH addition, cells were harvested with Passive Lysis Buffer (Promega), and levels of luciferase were measured using Luciferase Assay System as described by the manufacturer (Promega). The Galacto-Light Plus System (Applied Biosystems) was used to measure beta-galactosidase activity.
Statistical analysis. The concentration of drug that provokes 50% reduction of luciferase activity (IC50) was determined by using non-linear regression analysis and data were fitted to a log concentration vs normalized response curve in GraphPad software v5 (San Diego, Calif.).

JAK2 = JAK2 phosphorylation western blot assay; format: cell-based, human; conditions: 10 microM, HEL or K562 cells (table does not say which)
Method: as §3, §4, §5

K562 cells [4] = conditions: cited from earlier work
STAT5 [5] = conditions: K562 cells, 30-100 μM; cited from earlier work

| SMILES | pIC50 (HEL cells) | pIC50 (K562 cells [1]) | Activity (inhibition of STAT5 phosphorylation) (STAT5 [2]) | pIC50 [3] | Activity (inhibition of JAK2 phosphorylation) (JAK2) | cell cycle phases in flow cytometry experiments (K562 cells [4]) | tyrosine phosphorylation of STAT5 (STAT5 [5]) | pIC50 (HEL cells; Homo sapiens) | pIC50 (K562 cells [1]; Homo sapiens) | pIC50 ([3]; Homo sapiens) |
| --- | --- | --- | --- | --- | --- | --- | --- | --- | --- | --- |
| CC1(C)CC(=O)C2=C(C1)NC1=C(C(=O)c3ccncc3C1=O)C2c1ccccc1 (stereo not shown) [Compound 13] | > 5.52 | > 5.52 | +++ (+++represents an inhibition at 10 microM > 75%) | > 5.30 | ++ (++represents an inhibition at 10 microM > 50%) |  |  |  |  |  |
| O=C1CCCC2=C1C(c1ccc3c(c1)OCO3)C1=C(N2)C(=O)c2ccccc2C1=O (stereo not shown) [Compound 18] |  | > 5.00 | + (+represents an inhibition at 10 microM > 50%) |  | ++ (++represents an inhibition at 10 microM > 50%) |  |  |  |  |  |
| COc1cc2ncnc(Nc3ccc(O)cc3)c2cc1OC [WHI-P131] |  |  |  |  |  | dose-dependent decrease in G1 and S phases and an increase in G2/M phases | caused a reduction in tyrosine phosphorylation of STAT5 |  |  |  |
| O=C1CCCC2=C1C(c1cccc(Br)c1)C1=C(N2)C(=O)c2ccccc2C1=O (stereo not shown) [Compound 27] | > 5.52 | > 5.00 |  | > 5.30 | + (+represents an inhibition at 10 microM > 30%) |  |  |  |  |  |
| O=C1CCCC2=C1C(c1ccc(Br)cc1)C1=C(N2)C(=O)c2ccccc2C1=O (stereo not shown) [Compound 26, 12-(4-bromophenyl)-3,4-dihydrobenzo[b]acridine 1,6,11(2H,5H,12H)-trione] |  |  | + (+represents an inhibition at 10 microM > 50%) |  |  |  |  | > 5.00 | > 6.00 | > 5.30 |
| N#Cc1ccc(C2C3=C(CCCC3=O)NC3=C2C(=O)c2ccccc2C3=O)cc1 (stereo not shown) [Compound 2, 4-(1,6,11-trioxo-1,2,3,4,5,6,11,12-octahydrobenzo[b]acridin-12-yl)benzonitrile] |  |  |  |  |  |  |  | > 5.52 | > 6.00 | > 6.00 |
| CC1(C)CC(=O)C2=C(C1)OC1=C(C(=O)c3ccccc3C1=O)C2c1ccccn1 (stereo not shown) [Compound 12] | > 5.52 |  | ++ (++represents an inhibition at 10 microM > 50%) | > 6.00 | ++ (++represents an inhibition at 10 microM > 50%) |  |  |  |  |  |
| CC1(C)CC(=O)C2=C(C1)OC1=C(C(=O)c3ccccc3C1=O)C2c1ccc2c(c1)OCO2 (stereo not shown) [Compound 16, 12-(benzo[d][1,3]dioxol-5-yl)-3,3-dimethyl-3,4-dihydro-1H-benzo[b]xanthene-1,6,11(2H,12H)-trione] |  |  |  |  |  |  |  | > 5.52 | > 5.52 | > 5.30 |
| CC1(C)CC(=O)C2=C(C1)OC1=C(C(=O)c3ccccc3C1=O)C2c1ccc(C#N)cc1 (stereo not shown) [Compound 3, 4-(3,3-dimethyl-1,6,11-trioxo-2,3,4,6,11,12-hexahydro-1H-benzo[b]xanthen-12-yl)benzonitrile] |  |  | +++ (+++represents an inhibition at 10 microM > 75%) |  | ++ (++represents an inhibition at 10 microM > 50%) |  |  | > 6.00 | > 6.00 | > 6.00 |
| O=C1CCCC2=C1C(c1ccc(Cl)cc1)C1=C(N2)C(=O)c2ccccc2C1=O (stereo not shown) [Compound 1, 12-(4-chlorophenyl)-3,4-dihydrobenzo[b]acridine-1,6,11(2H,5H,12H)-trione] |  |  |  |  |  |  |  | > 5.52 | > 5.00 | > 5.30 |
| O=C1CCCC2=C1C(c1ccc(Br)cc1)C1=C(O2)C(=O)c2ccccc2C1=O (stereo not shown) [Compound 10] | > 5.52 |  | + (+represents an inhibition at 10 microM > 50%) | > 6.00 | ++ (++represents an inhibition at 10 microM > 50%) |  |  |  |  |  |
